Results on six molecules are retold here after PMC9501633, “Synthesis, Characterisation and Mechanism of Action of Anticancer 3-Fluoroazetidin-2-ones” (Pharmaceuticals, 2022).

Each structure is given as a SMILES string. A value given as a limit tells only on which side of the number the result lay.

Data set [1] has as its system SW-480 cells. As to the kind of experiment: AlamarBlue cell viability assay. The data set is classed as cell-based. The note with it: SW-480, 10 μM, 72 h. The method, then: Compound # (Treatment Concentration µM) […]
different para-substituent ring B 26-29; 3-fluoro β-lactam compounds containing different meta-substituent ring B 30, 33-35; (B) 3,3-difluoro β-lactam compounds containing different para-substituent ring B 36-39; 3,3-difluoro β-lactam compounds containing different meta-substituent […]
ring B 40, 42-45 in SW-480 cancer cells.
Cell proliferation of MCF-7 cells was determined with an alamarBlue assay (seeding density […]
Compound concentrations of either 10 μM or 1 μM for 72 h were used to treat the cells with control wells containing vehicle ethanol (1%
For orientation: Resazurin is reduced to fluorescent resorufin, in cell work by metabolically active cells.

For data set [2], the system named is MCF-7 human breast cancer cells. Nature of the data set: AlamarBlue cell viability assay. Type of data set: cell-based. The note with it: for viability at 1 µM / viability at 10 µM / IC50: Homo sapiens, MCF7, 72 h; for viability at 1 µM: MCF-7, 1 μM; for viability at 1 µM / viability at 10 µM: read-out: viable cells remaining; for viability at 10 µM: MCF-7, 10 μM; for IC50: MCF-7, 72 h. The method, then: The antiproliferative potential of the synthesised 3-fluoro β-lactams 26–35 and 3,3-difluoro β-lactams 36–45 was evaluated in MCF-7 human breast cancer cells using the AlamarBlue assay, with CA-4 as reference compound (Figure 3). […] The results for the preliminary in vitro antiproliferative screen for 3-fluoro β-lactam compounds (26–29), which contain different substituents at the para position in the B ring, are presented in Figure 3A.
Cells were seeded at a density of 5 × 10^3 cells/well (MCF-7 and MDA-MB-231) and 1 × 10^4 cells/well (HEK-293T) in 96-well plates (200 μL per well). After 24 h, cells were then treated with medium alone, with vehicle (1% ethanol (v/v)) or with CA-4 or β-lactam compounds at 1 μM and 10 μM concentrations. […] Cell proliferation for MCF-7 cells was analysed with the AlamarBlue assay (Invitrogen Corp.) as previously described by us. After 72 h, AlamarBlue (10% (v/v)) was added to each well, and plates were incubated for 3–5 h at 37 °C in the dark. Fluorescence results were obtained with a 96-well fluorimeter with excitation at 530 nm and emission at 590 nm with results recorded as percentage viability relative to vehicle control (100%). Dose–response curves were obtained and IC50 values (concentration of drug resulting in 50% reduction in cell survival) were calculated using Prism (GraphPad Software, Inc., La Jolla, CA, USA).
Figure 3 Preliminary cell viability data for 3-fluoro and 3,3-difluoro β-lactam compounds. (A) 3-Fluoro β-lactam compounds containing different para-substituent ring B 26–29; 3-fluoro β-lactam compounds containing different meta-substituent ring B 30, 32–35; (B) 3-difluoro β-lactam compounds containing different para-substituent ring B 36–39; 3-difluoro β-lactam compounds containing different meta-substituent ring B 40, 42–45 in MCF-7 breast cancer cells. Cell proliferation of MCF-7 cells was determined with an AlamarBlue assay (seeding density […] for 96-well plates). Compound concentrations of either 10 μM or 1 μM for 72 h were used to treat the cells with control wells containing vehicle ethanol (1% v/v) and CA-4 (10 μM and 1 μM). The mean value for three experiments is shown with the ± S.E.M. for three independent experiments.

A short description of data set [3]: Stability under degradation conditions (HPLC). Type of data set: physicochemical. How it is done: (§1) The β-lactam ring is known to undergo hydrolysis/degradation depending on the substituent type on the ring. For example, degradation of monocyclic β-lactam antibiotic aztreonam increased with elevated humidity, temperature and acidic pH buffer. Ezetimibe, a monocyclic β-lactam drug used to reduce blood cholesterol, undergoes degradation and hydrolysis more rapidly in neutral and basic pH conditions than in acidic pH [71]. The stability of representative compounds 33 and 39 was also determined at pH 4, pH 7.4 (plasma) and pH 9 (intestine) by HPLC. […] The electron-withdrawing effect of the 3-fluoro substituent may result in decreasing stability of the β-lactam ring in response to acid hydrolysis.
(§2) The stability study for compounds 33 and 39 was performed using analytical HPLC (Symmetry column (C18, […], 4.6 × 150 mm), dual wavelength absorbance detector (Waters 2487), binary HPLC pump (Waters 1525) and autosampler (Waters 717 plus)) with mobile phase acetonitrile (70%)/water (30%), flow rate 1 mL/min over 15 min and detection at λ 254 nm. Stock solutions of compounds 33 and 39 (1 mg/mL in mobile phase) were used. Dilutions of 0.5 mg/mL, 0.25 mg/mL, 0.125 mg/mL, 0.0625 mg/mL, 0.03125 mg/mL, 0.015625 mg/mL and 0.0078 mg/mL were prepared for the calibration curve. (i) Stability of 33 and 39 in phosphate buffers: The phosphate buffers were prepared in accordance with the British Pharmacopoeia 2020 at pH values 4, 7.4 and 9. Stock solution, 300 µL (1 mg/mL ACN), was added to a vial containing buffer (9.7 mL), mixed and pre-heated to 37 °C. 1 mL of the solution was introduced into an HPLC vial. Samples (10 µL) were injected and analysed at time intervals of t = 0 min, 5 min, 30 min, 60 min and hourly for 24 h. The analysis was performed in triplicate. (ii) Thermal stability: Compounds 33 and 39 (1 mL stock solution) were each placed in a vial for 4 h at 60 °C on a heating block. The sample was then cooled, diluted with acetonitrile and analysed by HPLC. (iii) Photostability study: Compounds 33 and 39 (stock solution, 1 mL) were placed in a vial, exposed to UV light for 4 h and then analysed by HPLC. (iv) Stability in acidic conditions: HCl (0.1 M, 0.2 mL) was added to stock solutions (0.8 mL) of 33 and 39 in a vial. The vial was vortexed and retained at room temperature. A sample was neutralised with NaOH (0.1 M, 0.2 mL) each hour for 4 h and then analysed by HPLC. (v) Stability of 33 and 39 in basic (alkaline) conditions: NaOH (0.1 M, 0.2 mL) was added to stock solution (0.8 mL) in a vial. The vial was vortexed and retained at room temperature. A sample was neutralised with HCl (0.1 M, 0.2 mL) every hour for 4 h then analysed by HPLC. (vi) Stability of 33 and 39 in oxidising conditions: H2O2 (3%, 0.2 mL) was added to the stock solution (0.8 mL). The vial was vortexed to obtain a homogeneous mixture and retained at room temperature, and a sample was analysed by HPLC every hour for 4 h.

The nature of data set [4]: Stability in phosphate buffers (HPLC). The data set is classed as physicochemical. The method, then:
as §1, §2

As to `COc1ccc(C2N(c3cc(OC)c(OC)c(OC)c3)C(=O)C2(F)F)cc1O` (centres unmarked) [Compound 42, 3,3-Difluoro-4-(3-hydroxy-4-methoxyphenyl)-1-(3,4,5-trimethoxyphenyl)azetidin-2-one], the cells remaining in data set [1] came out at 56%. Moreover, in data set [2] (72 h), the viability at 1 µM was 17% and the viability at 10 µM stood at 37%. Besides, the IC50 (as a rule, the concentration needed to halve the response being measured) in data set [2] is 0.321 µM.

For the molecule `COc1cc(N2C(=O)C(F)C2c2ccc(SC)cc2)cc(OC)c1OC` (centres unmarked) [Compound 28, 3-Fluoro-4-(4-(methylthio)phenyl)-1-(3,4,5-trimethoxyphenyl)azetidin-2-one], in data set [2] (72 h), the viability at 1 µM is over 70% and the viability at 10 µM came out at 47%.

With `CCSc1ccc(C2N(c3cc(OC)c(OC)c(OC)c3)C(=O)C2(F)F)cc1` (centres unmarked) [Compound 39, 4-(4-(Ethylthio)phenyl)-3,3-difluoro-1-(3,4,5-trimethoxyphenyl)azetidin-2-one], the share remaining (usually the share of the starting amount still present when the sample was taken) at 4 h, 0.8 mg/mL stood at 54% in data set [3] (0.1 M HCl added to stock solution, acidic (0.1 M HCl)); 60% in data set [3] (0.1 M NaOH added to stock solution, alkaline (0.1M NaOH)); 50% in data set [3] (3% H2O2 added to stock solution, oxidative (3% H2O2)). Further, the amount remaining at 4 h, 1 mg/mL in data set [3] (stock solution in acetonitrile/water under UV light, UV light) amounted to 61%; in data set [3] (stock solution in acetonitrile/water, heated, heat (60 °C)), 82%. The share remaining at 24 h, 0.03 mg/mL amounted to 39% in data set [4] (phosphate buffer pH 4, 37 °C); 50% in data set [4] (phosphate buffer pH 7.4, 37 °C); 19% in data set [4] (phosphate buffer pH 9, 37 °C). In addition, in data set [4] (phosphate buffer, pH 11 (as printed in Table S7)), the share remaining at 0.03 mg/mL was 19%.

In data set [1], `COc1ccc(C2C(F)C(=O)N2c2cc(OC)c(OC)c(OC)c2)cc1` (centres unmarked) [Compound 26, 3-Fluoro-4-(4-methoxyphenyl)-1-(3,4,5-trimethoxyphenyl)azetidin-2-one] yielded a cells remaining of 58%. Moreover, in data set [2] (72 h), the viability at 1 µM is over 70% and the viability at 10 µM is 40%. The molecule also yielded an IC50 in data set [2] of 0.312 µM.

As for `CCSc1ccc(C2C(F)C(=O)N2c2cc(OC)c(OC)c(OC)c2)cc1` (centres unmarked) [Compound 29, 4-(4-(Ethylthio)phenyl)-3-fluoro-1-(3,4,5-trimethoxyphenyl)azetidin-2-one], in data set [1], the cells remaining is 60%. Further, in data set [2] (MCF-7, range over the two concentrations 1 and 10 μM, 72 h), the cell viability was 68–90%.

For the molecule `CCOc1ccc(C2C(F)C(=O)N2c2cc(OC)c(OC)c(OC)c2)cc1` (centres unmarked) [Compound 27, 4-(4-Ethoxyphenyl)-3-fluoro-1-(3,4,5-trimethoxyphenyl)azetidin-2-one], in data set [2] (72 h), the viability at 1 µM was over 70% and the viability at 10 µM stood at 46%.
